Target: T1, KRAS G12C 1-169, his-tagged protein, GDP-loaded (Homo sapiens, UniProt P01116, G12C)
T1 construct: KRAS G12C 1-169, his-tagged protein, GDP-loaded was diluted to 2 μm in buffer
Test: Biochemical assay: covalent binding to KRAS G12C analyzed by mass spectrometry
Details: protein diluted to 2 μm, room temperature for 24 hrs, method lists 100, 30 and 10 μM final compound concentration, not stated which applies
Procedure: Test compounds were prepared as 10 mM stock solutions in DMSO (Fisher cat# BP-231-100). KRAS G12C 1-169, his-tagged protein, GDP-loaded was diluted to 2 μm in buffer (20 mM Hepes, 150 mM NaCl, 1 mM MgCl2). Compounds were tested for activity as follows:
Compounds were diluted to 50× final test concentration in DMSO in 96-well storage plates. Compound stock solutions were vortexed before use and observed carefully for any sign of precipitation. Dilutions were as follow: • For 100 μM final compound concentration, compounds were diluted to 5000 μM (5 μl 10 mM compound stock +5 μl DMSO and mixed well by pipetting. • For 30 μM final compound concentration, compounds were diluted to 1500 μM (3 μl 10 mM compound stock +17 μl DMSO) and mixed well by pipetting. • For 10 μM final compound concentration, compounds were diluted to 500 μM (2 μl 10 mM compound stock +38 μl DMSO) and mixed well by pipetting. 49 μl of the stock protein solution was added to each well of a 96-well PCR plate (Fisher cat#1423027). 1 μl of the diluted 50× compounds were added to appropriate wells in the PCR plate using 12-channel pipettor. Reactions were mixed carefully and thoroughly by pipetting up/down with a 200 μl multi-channel pipettor. The plate was sealed well with aluminum plate seal, and stored in drawer at room temperature for 24 hrs. 5 μl of 2% formic acid (Fisher cat# A117) in DI H2O was then added to each well followed by mixing with a pipette. The plate was then resealed with aluminum seal and stored on dry ice until analyzed as described below.
The above described assays were analyzed by mass spectrometry according to the following procedure:
The MS instrument is set to positive polarity, 2 GHz resolution, and low mass (1700) mode and allowed to equilibrate for 30 minutes. The instrument is then calibrated, switched to acquisition mode and the appropriate method loaded.
After another 30 minute equilibration time, a blank batch (i.e., buffer) is run to ensure equipment is operating properly. The samples are thawed at 37° C. for 10 minutes, briefly centrifuged, and transfer to the bench top. Wells A1 and H12 are spiked with 1 uL 500 uM internal standard peptide, and the plates centrifuged at 2000×g for 5 minutes. The method is then run and masses of each individual well recorded.
The masses (for which integration data is desired) for each well are pasted into the platemap and exported from the analysis. Masses for the internal standards are exported as well. The data at 50 ppm is extracted for the +19 charge state, and identity of well A1 is assigned using the internal standard spike and integrated. Peak data is exported as a TOF list and the above steps are repeated individually, for the +20, 21, 22, 23, 24, and 25 charge states.

| SMILES | Binding % |
| --- | --- |
| C=CC(=O)NCC1C[C@@H]2O[C@H](CO)[C@@H](OCc3ccccc3)[C@@H]2O1 (some centres unmarked) [Compound I-1] | + (+ indicates binding activity from 0.5% to 5%) |
| C=CC(=O)NC[C@@H]1C[C@@H]2O[C@H](CO)[C@@H](OCc3ccccc3)[C@@H]2O1 [Compound I-2] | + (+ indicates binding activity from 0.5% to 5%) |
| C=CC(=O)NC[C@H]1C[C@@H]2O[C@H](COCc3ccccc3)[C@@H](OCc3ccccc3)[C@@H]2O1 [Compound I-3] | + (+ indicates binding activity from 0.5% to 5%) |
| C=CC(=O)NC[C@@H]1C[C@@H]2O[C@H](COCc3ccccc3)[C@@H](OCc3ccccc3)[C@@H]2O1 [Compound I-4] | + (+ indicates binding activity from 0.5% to 5%) |
| C=CS(=O)(=O)NC[C@@H]1C[C@@H]2O[C@H](COCc3ccccc3)[C@@H](OCc3ccccc3)[C@@H]2O1 [Compound I-5] | +++ (+++ indicates binding activity from greater than 10% to 15%) |
| C=CS(=O)(=O)NC[C@H]1C[C@@H]2O[C@H](COCc3ccccc3)[C@@H](OCc3ccccc3)[C@@H]2O1 [Compound I-6] | +++ (+++ indicates binding activity from greater than 10% to 15%) |
| C=CS(=O)(=O)NC[C@H]1C[C@@H]2O[C@H](CO)[C@@H](OCc3ccccc3)[C@@H]2O1 [Compound I-7] | ++ (++ indicates binding activity from greater than 5% to 10%) |
| C=Cc1ccc(S(=O)(=O)NC[C@H]2C[C@@H]3O[C@H](CO)[C@@H](OCc4ccccc4)[C@@H]3O2)cc1 [Compound I-9] | +++ (+++ indicates binding activity from greater than 10% to 15%) |
| C=Cc1ccc(S(=O)(=O)NC[C@H]2C[C@@H]3O[C@H](COCc4ccccc4)[C@@H](OCc4ccccc4)[C@@H]3O2)cc1 [Compound I-10] | ++++ (++++ indicates binding activity from greater than 15%) |
| C=Cc1cccc(S(=O)(=O)NC[C@H]2C[C@@H]3O[C@H](COCc4ccccc4)[C@@H](OCc4ccccc4)[C@@H]3O2)c1 [Compound I-11] | ++ (++ indicates binding activity from greater than 5% to 10%) |
| C=Cc1ccccc1S(=O)(=O)NC[C@H]1C[C@@H]2O[C@H](COCc3ccccc3)[C@@H](OCc3ccccc3)[C@@H]2O1 [Compound I-12] | +++ (+++ indicates binding activity from greater than 10% to 15%) |
| C=Cc1cccc(S(=O)(=O)NC[C@@H]2C[C@@H]3O[C@H](COCc4ccccc4)[C@@H](OCc4ccccc4)[C@@H]3O2)c1 [Compound I-13] | ++++ (++++ indicates binding activity from greater than 15%) |
| C=Cc1ccc(S(=O)(=O)NC[C@@H]2C[C@@H]3O[C@H](COCc4ccccc4)[C@@H](OCc4ccccc4)[C@@H]3O2)cc1 [Compound I-14] | +++ (+++ indicates binding activity from greater than 10% to 15%) |
| C=Cc1ccccc1S(=O)(=O)NC[C@@H]1C[C@@H]2O[C@H](COCc3ccccc3)[C@@H](OCc3ccccc3)[C@@H]2O1 [Compound I-15] | +++ (+++ indicates binding activity from greater than 10% to 15%) |
| C=Cc1cccc(S(=O)(=O)NC[C@H]2C[C@@H]3O[C@H](CO)[C@@H](OCc4ccccc4)[C@@H]3O2)c1 [Compound I-16] | ++ (++ indicates binding activity from greater than 5% to 10%) |
| C=Cc1ccccc1S(=O)(=O)NC[C@@H]1C[C@@H]2O[C@H](CO)[C@@H](OCc3ccccc3)[C@@H]2O1 [Compound I-17] | ++++ (++++ indicates binding activity from greater than 15%) |

| SMILES | Binding % |
| --- | --- |
| C=Cc1ccccc1S(=O)(=O)NC[C@H]1C[C@@H]2O[C@H](CO)[C@@H](OCc3ccccc3)[C@@H]2O1 [Compound I-18] | +++ (+++ indicates binding activity from greater than 10% to 15%) |
| C=Cc1ccc(S(=O)(=O)NC[C@H]2C[C@@H]3O[C@H](CO)[C@@H](OCc4ccccc4)[C@@H]3O2)cc1 [Compound I-19] | ++ (++ indicates binding activity from greater than 5% to 10%) |
| C=Cc1cccc(S(=O)(=O)NC[C@@H]2C[C@@H]3O[C@H](CO)[C@@H](OCc4ccccc4)[C@@H]3O2)c1 [Compound I-20] | +++ (+++ indicates binding activity from greater than 10% to 15%) |
| C=CS(=O)(=O)NCCOc1ccc2ccccc2c1 [II-1] | +++ (+++ indicates binding activity from greater than 10% to 15%) |
| C=CS(=O)(=O)NCCOc1cccc2ccccc12 [II-2] | +++ (+++ indicates binding activity from greater than 10% to 15%) |
| C=CS(=O)(=O)NCCNc1cccc2ccccc12 [II-3] | +++ (+++ indicates binding activity from greater than 10% to 15%) |
| C=CS(=O)(=O)NCCNc1ccc2ccccc2c1 [II-4] | ++ (++ indicates binding activity from greater than 5% to 10%) |
| C=Cc1ccc(S(=O)(=O)NCCNc2ccc3ccccc3c2)cc1 [II-5] | ++ (++ indicates binding activity from greater than 5% to 10%) |
| C=Cc1ccc(S(=O)(=O)NCCOc2ccc3ccccc3c2)cc1 [II-6] | +++ (+++ indicates binding activity from greater than 10% to 15%) |
| C=Cc1cccc(S(=O)(=O)NCCOc2cccc3ccccc23)c1 [II-7] | ++ (++ indicates binding activity from greater than 5% to 10%) |
| C=Cc1cccc(S(=O)(=O)NCCOc2ccc3ccccc3c2)c1 [II-8] | +++ (+++ indicates binding activity from greater than 10% to 15%) |
| C=Cc1ccccc1S(=O)(=O)NCCOc1ccc2ccccc2c1 [II-9] | ++ (++ indicates binding activity from greater than 5% to 10%) |
| C=Cc1ccc(S(=O)(=O)NCCNc2cccc3ccccc23)cc1 [II-10] | +++ (+++ indicates binding activity from greater than 10% to 15%) |
| C=Cc1ccccc1S(=O)(=O)NCCNc1cccc2ccccc12 [II-11] | ++++ (++++ indicates binding activity from greater than 15%) |
| C=Cc1ccccc1S(=O)(=O)NCCOc1cccc2ccccc12 [II-12] | +++ (+++ indicates binding activity from greater than 10% to 15%) |
| C=Cc1ccccc1S(=O)(=O)NCCNc1ccc2ccccc2c1 [II-13] | +++ (+++ indicates binding activity from greater than 10% to 15%) |
